{"source": "paper PMC7253177", "about": "“Gain of channel function and modified gating properties in TRPM3 mutants causing intellectual disability and epilepsy” (eLife, 2020)", "target": "T1, TRPM3 P1090Q mutant (Homo sapiens, UniProt Q9HCF6, P1115Q)", "T1 sequence (Q9HCF6 1-1325 isoform Q9HCF6-10 P1090Q)": "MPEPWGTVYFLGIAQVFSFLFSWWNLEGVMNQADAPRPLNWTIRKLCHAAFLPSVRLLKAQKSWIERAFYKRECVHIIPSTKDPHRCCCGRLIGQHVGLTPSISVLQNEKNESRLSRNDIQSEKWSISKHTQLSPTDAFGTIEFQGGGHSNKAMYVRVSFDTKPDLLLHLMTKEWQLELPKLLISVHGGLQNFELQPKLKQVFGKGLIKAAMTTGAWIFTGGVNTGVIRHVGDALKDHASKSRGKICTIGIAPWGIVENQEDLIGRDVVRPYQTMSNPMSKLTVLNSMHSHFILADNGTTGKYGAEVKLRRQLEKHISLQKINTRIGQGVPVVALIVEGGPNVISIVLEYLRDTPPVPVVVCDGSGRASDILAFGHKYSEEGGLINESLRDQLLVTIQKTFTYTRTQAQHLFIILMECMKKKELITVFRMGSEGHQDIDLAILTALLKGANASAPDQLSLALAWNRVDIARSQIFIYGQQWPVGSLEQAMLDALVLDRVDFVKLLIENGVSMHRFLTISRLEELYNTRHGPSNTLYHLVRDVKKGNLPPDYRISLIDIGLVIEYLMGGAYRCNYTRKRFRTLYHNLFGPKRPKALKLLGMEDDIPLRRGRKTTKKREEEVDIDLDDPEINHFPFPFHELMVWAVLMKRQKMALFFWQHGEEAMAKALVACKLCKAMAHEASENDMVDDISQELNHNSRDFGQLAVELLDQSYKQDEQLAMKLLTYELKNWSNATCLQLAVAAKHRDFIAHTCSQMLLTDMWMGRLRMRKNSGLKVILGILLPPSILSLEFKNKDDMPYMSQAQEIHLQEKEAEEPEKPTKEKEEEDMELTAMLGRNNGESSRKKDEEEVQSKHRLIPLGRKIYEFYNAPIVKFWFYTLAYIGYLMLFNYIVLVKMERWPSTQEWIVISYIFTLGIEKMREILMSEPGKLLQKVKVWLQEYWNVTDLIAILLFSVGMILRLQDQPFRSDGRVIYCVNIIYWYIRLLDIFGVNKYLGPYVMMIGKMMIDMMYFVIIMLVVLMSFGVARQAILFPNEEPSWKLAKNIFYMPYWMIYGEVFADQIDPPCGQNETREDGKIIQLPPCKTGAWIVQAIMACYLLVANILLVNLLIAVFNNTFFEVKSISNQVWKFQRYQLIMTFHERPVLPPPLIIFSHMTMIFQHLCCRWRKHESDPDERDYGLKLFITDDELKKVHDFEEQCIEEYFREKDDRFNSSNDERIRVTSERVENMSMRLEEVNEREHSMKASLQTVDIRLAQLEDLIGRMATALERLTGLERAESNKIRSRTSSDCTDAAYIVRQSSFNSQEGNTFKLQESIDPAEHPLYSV", "assay": "Fura-2-based calcium imaging, HEK293T cells transfected with P1090Q hTRPM3", "type": "cell-based", "set-up": "expressed in transfected cells; host or cells: HEK293T", "procedure": "HEK293T cells ([Graham et al., 1977]) were cultured as described previously ([Vriens et al., 2007]) and used up in passage number 14. HEK293T cells were tested for the lack of mycoplasma and transiently transfected with 2 µg of DNA using TransIT transfection reagent (Mirus) 36–48 hr before the measurements. In case of co-cultures a ratio of 1:1 between hTRPM3-YFP WT and mutants-YFP DNA was used.\nAll mutants were obtained by the standard PCR overlap extension method using hTRPM3 directly linked to YFP from pCAGGS/IRES-GFP vector ([Vriens et al., 2007]). Accuracy of all mutant sequences was verified by sequencing of the entire DNA constructs.\nChanges in intracellular calcium concentration were monitored using ratiometric Fura-2-based fluorimetry. Cells were loaded with 2 µM Fura-2-acetoxymethyl ester (Alexis Biochemicals) for 30 min at 37°C. Fluorescence was measured during alternating illumination at 340 and 380 nm using Eclipse Ti (Nikon) fluorescence microscopy system, and absolute calcium concentration was calculated from the ratio of the fluorescence signals at these two wavelengths (R = F340/F380) as [Ca^2+]=Km × (R-Rmin)/(Rmax-R), where Km, Rmin and Rmax were estimated from in vitro calibration experiments with known calcium concentrations. The bath solution contained (in mM) 138 NaCl, 5.4 KCl, 2 CaCl2, 2 MgCl2, 10 glucose, and 10 HEPES, pH 7.4. […]"}
{"compound": "pregnenolone sulfate [PS]", "values": [{"measurement": "PS concentration giving robust calcium responses (as low as)", "result": 1, "unit": "µM"}]}
{"compound": "CCC1(c2ccccc2)C(=O)NCNC1=O", "note": "[primidone]", "values": [{"measurement": "Effect on basal [Ca2+]i", "setting": "primidone 100 µM, isosakuranetin 50 µM", "result": "reduced [Ca^2+]i"}]}
